How the values were obtained:
CXXC5-DVL interaction = assay: In vitro CXXC5-DVL PPI inhibition (binding) assay, library screening; conditions: compound 30 μM; FITC-tagged PTD-DBMP and DVL-PDZ domain; fluorescence intensity
Method: Screening for compounds that inhibit the CXXC5-DVL interaction. […] CELL. DEATH. DIFFER. […] Briefly, 5 mg/ml purified DVL-PDZ domain was incubated in each well of a 96-well Maxibinding Immunoplate (SPL, Seoul, Korea) at 4° C. for 16 h. After the addition of 10 μM FITC-tagged PTD-DBMP to each well, each compound in the chemical library or control (DMSO) was treated to the well at a final concentration of 30 μM. The fluorescence intensity was measured using a Fluorstar Optima microplate reader (BGM Lab Technologie, Ortenberg, Germany) and normalized as follows: “(‘compounds-treated group’−‘blank’)/(‘DMSO-treated control’−‘blank’)*100”.

[1] = system: β-catenin, CXXC5 and p-GSK3β (S9) in H4/SWE cells; assay: Western blot assay in H4/SWE cells; assay type: cell-based; conditions: FIG. 9A
Method: Western blot assay. H4 and H4/SWE Cells were ground with a mortar and pestle before lysis in RIPA buffer (150 mM NaCl, 10 mM Tris, pH 7.2, 0.1% SDS, 1.0% Triton X-100, 1% sodium deoxycholate, and 5 mM EDTA). Samples were separated on 6-12% SDS polyacrylamide gels and transferred onto PROTRAN nitrocellulose membranes (Schleicher and Schuell Co.). The membranes were blocked with PBS containing 5% non-fat dry skim milk and 0.07% (vol/vol) Tween 20 and incubated with antibody specific for β-catenin (1:1,000, Santa Cruz Biotechnology, Inc.), CXXC5 (1:500, Santa Cruz Biotechnology, Inc.), p-GSK3β(S9) (1:500, Santa Cruz Biotechnology, Inc.). The membranes were then incubated with horseradish peroxidase-conjugated anti-rabbit (1:5,000, Bio-Rad Laboratories) or anti-mouse (1:5000, Cell Signaling Technology) IgG secondary antibody. Protein bands were visualized with enhanced chemiluminescence (GE Healthcare) using a luminescent image analyzer, LAS-3000 (Fujifilm). Western blot bands were analyzed using Multi-Gauge V3.0 software (Fujifilm).

Wnt/β-catenin pathway = assay: pTOPFlash reporter assay in HEK293 cells; conditions: HEK293 cells harboring the pTOPFlash reporter
[2] = system: secreted human amyloid β-42 in H4/SWE cells; assay: Human Aβ42 ELISA assay in H4/SWE cells; assay type: cell-based; conditions: 24 h, FIG. 10
Method: Human Aβ42 ELISA assay. H4 or H4/SWE cells were cultured in Dulbecco's Modified Eagle's Medium (DMEM, Gibco) containing 10% fetal bovine serum (FBS) and grown to confluence in a 5% CO2 and 95% air humidified atmosphere. The cells were seeded in 6-well plate in DMEM supplemented with 10% FBS and allowed to adhere overnight. The cells were treated with each compound (1˜20 uM) for 24 h and collected in 1 ml of medium. The samples were treated with protease inhibitor cocktail (PIC) to avoid the degradation of Amyloid β by protease and centrifuged at 3000 rpm for 3 min. Experiments were performed according to the guidance of Human Aβ42 ELISA Kit protocol (Invitrogen). The amount of secreted Amyloid β was normalized by measuring total protein concentration.

[3] = system: rat neuronal stem cells (NSCs); assay: Neural stem cell (NSC) differentiation, cell morphology; assay type: cell-based; conditions: 0, 1, 5 and 10 μM; 24 hours; medium with bFGF
Method: Neural stem cell (NSCs) culture. NSCs were extracted from the forebrain of E14.5 rats and maintained in an undifferentiated state by culturing in medium containing 10 ng/ml of bFGF (Peprotech). Undifferentiated NSCs (1×10^5) were treated with of each compound (10 μM) and cell morphology was assessed by capturing black and white images of the cells after 24 h.
Referring now to FIG. 7A-7B, NSCs were isolated form E14 mice embryos, and maintained in the maintenance medium (supplemented) with bFGF and EGF. The neuronal differentiation was induced by treating different concentrations of A3051. Cell morphologies were captured at 24 hours after treatment of the indirubin analog 3051 using a bright-field optical microscope.

[4] = system: β-catenin in H4/SWE cells; assay: Immunocytochemical analysis of β-catenin in H4/SWE cells; assay type: cell-based; conditions: FIG. 9B
Method: Immunocytochemical analysis. H4 or H4/SWE cells treated with each compound were washed with PBS and fixed in 4% (wt/vol) paraformaldehyde (PFA) in PBS for 15 min at room temperature. The cells were then washed with PBS and permeabilized with 0.1% (vol/vol) Triton X-100 in PBS for 15 min. After washing with PBS, the cells were incubated with 10% bovine serum albumin (BSA) in PBS for 30 min and then with antibodies specific for β-catenin (1:100; BD) overnight at 4° C. The cells were washed in PBS and incubated with Alexa Fluor 488—conjugated IgG secondary antibody (1:400; Molecular Probes) at room temperature for 1 h. Cell nuclei were counterstained with DAPI for 10 min and the stained samples were examined under a LSM510 META microscope.

serum active GLP-1 [5] = assay: Serum active GLP-1 in NASH mouse models (STZ-induced, MCD-induced); assay type: in vivo, mice; conditions: FIG. 6A-6B
Method: FIG. 6A. Graph illustrating the serum active GLP-1 levels in NCD-mice (“Chow”) and RFD-fed, STZ-induced NASH mice that were treated with vehicle, A3334, A3051, selonsertib, and ocaliva.
FIG. 6B. Graph illustrating the serum active GLP-1 levels in NCD-mice (“Chow”) and RFD-fed, methionine-choline deficient diet (MCD)-induced NASH mice that were treated with vehicle, A3334, A3051, selonsertib, ocaliva (“OCA”), and A3486.
(§1) Blood chemistry. Total blood of mice was collected by cardiac puncture. The blood was allowed to clot for 30 min and was then centrifuged for 30 min at 3,000×g to obtain supernatant to measure active GLP-1 concentration. ELISA assay kits were used to assess serum active GLP-1 (7-36).

serum active GLP-1 [6] = assay: Serum active GLP-1 ELISA in HFD-fed, STZ-induced diabetes mice; assay type: in vivo
Method: as §1
(§2) Animals. The generation of Cxxc5^−/− mice has been described previously. Cxxc5 heterozygous mice were intercrossed for four generations to obtain littermate wild-type and Cxxc5^−/− mice and were maintained on a C57BL/6 background. Six-week-old Cxxc5^+/+ and Cxxc5^−/− mice were fed HFD for 8 weeks. Wild-type male C57BL/6 mice (KOATECH, Seoul, Korea) were fed HFD consisting of 60% calories from fat (Research Diet, D12492) for 8 weeks. To validate that the insulin resistance mouse model was successfully established, fasting glucose levels were assessed with a One Touch Ultra glucometer (LifeScan). Subsequently, each HFD-fed mouse with a fasting glucose level higher than 16.7 mmol/L was orally administered A3334 (25 mg kg^−1), sitagliptin (50 mg kg^−1), or metformin (100 mg kg^−1) each day for 5 days at weeks 8 and 12. After the removal of the drugs, mice were maintained for 3 weeks on the HFD. To monitor pancreas regeneration, six-week-old Cxxc5^+/+ and Cxxc5^−/− mice were fed an HFD as above. […]

serum active GLP-1 [7] = assay: Serum active GLP-1 ELISA in HFD-mice; assay type: in vivo; conditions: compared with mice fed on NCD, FIG. 4A
Method: as §1, §2

[8] = system: GLP-1 and other Wnt/β-catenin signaling target genes (Tcf712, Axin2, Dvl1, Wisp1, Fosl1); assay: qPCR of GLP-1 and other Wnt/β-catenin signaling target genes in epiWAT of HFD-mice; assay type: in vivo; conditions: phenotypes as observed in HFD-fed Cxxc5−/− mice, FIG. 2C
Method: Quantitative real-time polymerase chain reaction (PCR). Total RNA was extracted from ground tissue powder using TRIzol reagent (Invitrogen) according to the manufacturer's instructions. Reverse transcription was performed with M-MLV reverse transcriptase (Invitrogen) using 2 μg of total RNA. Synthesized cDNA was diluted to a concentration of 100 ng/μl. Quantitative PCR analyses were performed in the Rotor-gene Q real-time PCR cycler (Qiagen) using SYBR green reagent (Qiagen) with conditions of 95° C. for 10 min followed by 40 cycles at 95° C. for 5 s and 60° C. for 15 s. Relative quantification of mRNA levels was estimated using the comparative Ct method (ΔΔCt). Glp-1 mRNA values were normalized with respect to GAPDH.
Animals. The generation of Cxxc5^−/− mice has been described previously. Cxxc5 heterozygous mice were intercrossed for four generations to obtain littermate wild-type and Cxxc5^−/− mice and were maintained on a C57BL/6 background. Six-week-old Cxxc5^+/+ and Cxxc5^−/− mice were fed HFD for 8 weeks. Wild-type male C57BL/6 mice (KOATECH, Seoul, Korea) were fed HFD consisting of 60% calories from fat (Research Diet, D12492) for 8 weeks. To validate that the insulin resistance mouse model was successfully established, fasting glucose levels were assessed with a One Touch Ultra glucometer (LifeScan). […]

SMILES: CN(C)c1ccc(O)c2c1C[C@H]1C[C@H]3[C@H](N(C)C)C(O)=C(C(N)=O)C(=O)[C@@]3(O)C(O)=C1C2=O.Cl [Compound 16]
- CXXC5-DVL inhibitory activity (%) (CXXC5-DVL interaction): 87.9%

SMILES: O=C1Nc2ccccc2/C1=C1/Nc2ccccc2C1=O [Indirubin, reference compound]
- level of β-catenin (western blot) [1]: restored
- p-GSK3β (S9) (western blot) [1]: increased

SMILES: COc1ccc(C2CC(C(F)(F)F)n3ncc(C(=O)O)c3N2)cc1OC (stereo not shown) [Compound 2]
- CXXC5-DVL inhibitory activity (%) (CXXC5-DVL interaction): 90.63%

SMILES: O=C1Nc2cc(Br)ccc2/C1=C1/Nc2ccccc2/C1=N\O [Compound 8, 6-Bromoindirubin-3′-oxime, reference compound]
- activation of Wnt/β-catenin pathway (reporter assay) (Wnt/β-catenin pathway): showed effectiveness
- level of β-catenin (western blot) [1]: restored
- p-GSK3β (S9) (western blot) [1]: increased

SMILES: O=c1cc(O)cc(/C=C/c2ccc(O)c(O)c2)o1 [Compound 11]
- CXXC5-DVL inhibitory activity (%) (CXXC5-DVL interaction): 90.05%

SMILES: O=c1c(O)c(-c2cc(O)c(O)c(O)c2)oc2cc(O)cc(O)c12 [Compound 13]
- CXXC5-DVL inhibitory activity (%) (CXXC5-DVL interaction): 85.22%

SMILES: CO/N=C1/C(=C2/C(=O)Nc3cc(Cl)c(Cl)cc32)Nc2ccccc21 [Compound A3051, 5,6-dichloroindirubin-3′-methoxime]
- secretion of Aβ-42 [2]: inhibited
- neural differentiation of NSCs (cell morphology) [3]: induced neural differentiation
- nuclear translocation of β-catenin [4]: increased
- level of CXXC5 (western blot) [1]: decreased
- level of β-catenin (western blot) [1]: restored
- p-GSK3β (S9) (western blot) [1]: increased
- active GLP-1 expression in blood serum (serum active GLP-1 [5]): significantly rescued (increased)

SMILES: NC(Cc1cc(O)c(O)cc1O)C(=O)O (stereo not shown) [Compound 10]
- CXXC5-DVL inhibitory activity (%) (CXXC5-DVL interaction): 90.32%

SMILES: Br.CN1CCc2cc(O)cc3c2[C@H]1Cc1ccc(O)c(O)c1-3 [Compound 9]
- CXXC5-DVL inhibitory activity (%) (CXXC5-DVL interaction): 89.41%

SMILES: COc1ccc2c(c1)/C(=C1/Nc3ccccc3/C1=N\O)C(=O)N2 [Compound A3334, 5-Methoxyindirubin-3′-oxime]
- secretion of Aβ-42 [2]: inhibited
- serum active GLP-1 levels (serum active GLP-1 [6]; STZ-induced diabetic HFD-mice, compared with mice fed on NCD, FIG. 4B): restored
- active GLP-1 expression in blood serum compared to the sitagliptin treatment (serum active GLP-1 [6]; compared to the effect of sitagliptin (positive control)): significantly rescued (increased)
- serum active GLP-1 levels (serum active GLP-1 [7]): restored
- nuclear translocation of β-catenin [4]: increased
- level of CXXC5 (western blot) [1]: decreased
- level of β-catenin (western blot) [1]: restored
- p-GSK3β (S9) (western blot) [1]: increased
- relative expression levels of GLP-1 and other Wnt/β-catenin signaling target genes in epiWAT [8]: restored the phenotypes
- active GLP-1 expression in blood serum (serum active GLP-1 [5]): significantly rescued (increased)

SMILES: CCN(CC)S(=O)(=O)c1ccc(OC)c(Nc2cc(-c3ccccc3)nc(C)n2)c1 [Compound 6]
- CXXC5-DVL inhibitory activity (%) (CXXC5-DVL interaction): 58.24%

SMILES: N[C@@H](CC(=O)N1CCn2c(nnc2C(F)(F)F)C1)Cc1cc(F)c(F)cc1F [sitagliptin, reference compound]
- relative expression levels of GLP-1 and other Wnt/β-catenin signaling target genes in epiWAT [8]: did not

SMILES: Oc1cc(O)cc(/C=C/c2ccc(O)c(O)c2)c1 [Compound 17]
- CXXC5-DVL inhibitory activity (%) (CXXC5-DVL interaction): 85.25%

SMILES: CC(N)(Cc1ccc(O)c(O)c1)C(=O)O (stereo not shown) [Compound 14]
- CXXC5-DVL inhibitory activity (%) (CXXC5-DVL interaction): 85.22%

SMILES: O=c1c(O)c(-c2ccc(O)cc2O)oc2cc(O)cc(O)c12 [Compound 15]
- CXXC5-DVL inhibitory activity (%) (CXXC5-DVL interaction): 85.41%

SMILES: Cl.O=C(OCCN1CCOCC1)C1(c2ccccc2)CCCCC1 [Compound 18]
- CXXC5-DVL inhibitory activity (%) (CXXC5-DVL interaction): 86.81%

SMILES: Cc1cc(C)c2c(O)nc(SCC(=O)c3ccc(O)c(O)c3)nc2n1 [Compound 3]
- CXXC5-DVL inhibitory activity (%) (CXXC5-DVL interaction): 88.19%

SMILES: COc1ccc(C2CC(=O)C3=C(C2)Nc2onc(C)c2C3c2ccc(O)c(O)c2)cc1OC (stereo not shown) [Compound 7]
- CXXC5-DVL inhibitory activity (%) (CXXC5-DVL interaction): 90.87%

SMILES: Cc1cc(F)c(C(=O)Nc2cccc(-c3nncn3C(C)C)n2)cc1-n1cnc(C2CC2)c1 [selonsertib, reference compound]
- active GLP-1 expression in blood serum (serum active GLP-1 [5]): did not have any effect

SMILES: COC(=O)C1=C(C)N/C(=C/c2cc(C)n(-c3ccccc3F)c2C)C1=O [Compound 4]
- CXXC5-DVL inhibitory activity (%) (CXXC5-DVL interaction): 87.58%

SMILES: O=C1Nc2ccccc2/C1=C1/Nc2ccccc2/C1=N\O [Compound 12, Indirubin-3′-oxime, reference compound]
- activation of Wnt/β-catenin pathway (reporter assay) (Wnt/β-catenin pathway): showed effectiveness
- level of β-catenin (western blot) [1]: restored
- p-GSK3β (S9) (western blot) [1]: increased
- CXXC5-DVL inhibitory activity (%) (CXXC5-DVL interaction): 89%

SMILES: O=C(O)C1Sc2[nH]c(=O)sc2C2c3cc(Br)cc(Br)c3OC(=O)C12 (stereo not shown) [Compound 5]
- CXXC5-DVL inhibitory activity (%) (CXXC5-DVL interaction): 90.48%

Reference: US12303490B2, “Compositions and methods for suppressing and/or treating neurodegenerative diseases and/or a clinical condition thereof” (CK Regeon Inc., priority 2019, dated 2025)
